Remaining activity data for 17 compounds are collected here from publication PMC6522912, “Evaluation of the published kinase inhibitor set to identify multiple inhibitors of bacterial ATP-dependent mur ligases” (Journal of Enzyme Inhibition and Medicinal Chemistry, 2019).

Where two headings read alike, the source gives them in different places.

The target of one assay is E. coli MurF (Escherichia coli, UniProt P11880). The assay can be described thus: biochemical. The conditions noted are these: 0.25 h, Table S1, PKIS screening; read-out: RA [%] at 100 µM MurF.
Another assay deals with E. coli MurC (Escherichia coli, UniProt P17952). The assay can be described thus: Malachite green inhibition assay, MurC. The assay is classed as biochemical. The conditions noted are these: 0.25 h.
The target of another assay is E. coli MurD (Escherichia coli, UniProt P14900). The assay can be described thus: biochemical. The note with it: 0.25 h, Table S1, PKIS screening; read-out: RA [%] at 100 µM MurD. A digest of the protocol: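 Orthophosphate released by E. coli MurD quantified by malachite green (Biomol green) absorbance at 650 nm after 15 min at 37 °C. Residual activity relative to DMSO-only controls.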

Where [1] appears, read: Table S1, PKIS screening, read-out: RA [%] at 100 µM MurC.

Sequence of E. coli MurF (P11880 whole entry): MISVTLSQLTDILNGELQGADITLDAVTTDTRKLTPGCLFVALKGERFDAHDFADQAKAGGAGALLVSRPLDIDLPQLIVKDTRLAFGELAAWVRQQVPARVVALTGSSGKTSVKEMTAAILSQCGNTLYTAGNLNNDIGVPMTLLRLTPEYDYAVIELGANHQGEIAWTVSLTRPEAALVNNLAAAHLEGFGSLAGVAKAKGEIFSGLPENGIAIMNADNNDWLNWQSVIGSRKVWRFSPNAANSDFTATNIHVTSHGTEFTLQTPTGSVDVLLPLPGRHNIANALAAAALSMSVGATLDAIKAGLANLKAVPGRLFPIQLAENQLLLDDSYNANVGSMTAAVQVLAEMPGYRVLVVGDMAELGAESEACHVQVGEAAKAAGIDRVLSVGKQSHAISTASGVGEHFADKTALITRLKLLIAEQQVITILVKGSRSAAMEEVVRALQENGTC
Sequence of E. coli MurC (P17952 whole entry): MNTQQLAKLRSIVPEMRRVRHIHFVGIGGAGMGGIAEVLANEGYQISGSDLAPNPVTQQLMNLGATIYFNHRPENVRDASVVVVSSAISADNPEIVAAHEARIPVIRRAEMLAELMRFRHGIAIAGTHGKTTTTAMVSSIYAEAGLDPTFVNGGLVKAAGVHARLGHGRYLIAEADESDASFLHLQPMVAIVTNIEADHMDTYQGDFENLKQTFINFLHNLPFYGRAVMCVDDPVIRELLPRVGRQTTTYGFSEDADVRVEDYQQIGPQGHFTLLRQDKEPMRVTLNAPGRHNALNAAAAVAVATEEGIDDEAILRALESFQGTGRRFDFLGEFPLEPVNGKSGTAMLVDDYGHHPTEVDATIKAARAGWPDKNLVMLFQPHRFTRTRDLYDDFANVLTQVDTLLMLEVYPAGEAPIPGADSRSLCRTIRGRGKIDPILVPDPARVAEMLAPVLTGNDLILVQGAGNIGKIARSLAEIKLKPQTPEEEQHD
Sequence of E. coli MurD (P14900 whole entry): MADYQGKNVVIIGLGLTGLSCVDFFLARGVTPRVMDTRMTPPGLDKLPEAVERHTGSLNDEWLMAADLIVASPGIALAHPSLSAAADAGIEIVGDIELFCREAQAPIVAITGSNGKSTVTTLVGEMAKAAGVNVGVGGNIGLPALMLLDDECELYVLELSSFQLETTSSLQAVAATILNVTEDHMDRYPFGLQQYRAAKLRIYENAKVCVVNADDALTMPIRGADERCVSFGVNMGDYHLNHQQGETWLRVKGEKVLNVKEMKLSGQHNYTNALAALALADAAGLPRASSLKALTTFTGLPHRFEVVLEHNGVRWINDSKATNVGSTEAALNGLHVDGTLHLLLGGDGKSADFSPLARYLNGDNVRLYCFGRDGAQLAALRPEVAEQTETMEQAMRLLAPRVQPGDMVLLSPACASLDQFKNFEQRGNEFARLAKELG

As for `Nc1ncnc2occ(-c3ccc(NC(=O)Nc4cc(C(F)(F)F)cc(C(F)(F)F)c4)cc3)c12` [GW795486X], the results for the remaining activity at 100 µM at E. coli MurF, on E. coli MurC (setting [1]) and on E. coli MurD were 71%, 36% and 57%, respectively.
For the compound `NC(=O)c1cc(-c2ccncc2)cc(-c2ccccc2)c1N` [GSK625137A], the remaining activity at 100 µM on E. coli MurF came out at 84%; at E. coli MurC (setting [1]), 65%; on E. coli MurD, 95%.
On the same counts, the results for `NC(=O)c1cc(-c2ccc(F)cc2)cc(-c2ccncc2)c1N` [GSK620503A] are 80%, 94% and 71%.
Take `COc1cc(N2CCN(C(C)C)CC2)ccc1Nc1nc(Nc2ccc(F)cc2C(N)=O)c2cc[nH]c2n1` [GSK1220512A]: the remaining activity at 100 µM came out at 54% at E. coli MurF; 2% at E. coli MurC (read-out: RA [%] at 100 µM MurC, Table S1, PKIS screening); 48% at E. coli MurD.
With `NS(=O)(=O)c1cccc(-c2cc3ccncc3cc2OCc2ccccc2)c1` [GSK980961A], the remaining activity at 100 µM was found to be 66% at E. coli MurF, 80% on E. coli MurC (setting [1]) and 86% on E. coli MurD.
Turning to `CS(=O)(=O)CCNCc1ccc(-c2ccc3ncnc(Nc4ccc(OCc5ccccc5)c(Br)c4)c3c2)o1` [GW580496A], the remaining activity at 100 µM came to 90% on E. coli MurF, 95% on E. coli MurC (setting [1]) and 48% on E. coli MurD.
On to `COc1cccc(-n2cnc3c(N/N=C/c4ccncc4)ncnc32)c1` [GW813360X], for which the remaining activity at 100 µM on E. coli MurF was found to be 81%; on E. coli MurC (setting [1]), 65%; at E. coli MurD, 84%.
Consider `COc1cc(Nc2nccc(-c3cnn4ncccc34)n2)cc(OC)c1` [GW801372X], for which the remaining activity at 100 µM turned out to be 80% at E. coli MurF, 94% at E. coli MurC (setting [1]) and 88% on E. coli MurD.
With `COc1cc(/C=N/Nc2ncnc3c2cnn3C(C)C)ccc1O` [GW644007X], the remaining activity at 100 µM at E. coli MurF is 78%; on E. coli MurC (setting [1]) it was 87%; at E. coli MurD, 91%.
The matching figures for `CN1CCN(Cc2ccc(-c3cc4ncnc(Nc5ccc(OCc6cccc(F)c6)c(Cl)c5)c4s3)o2)CC1` [GW784684X]: 56%, 20% and 52%.
The matching figures for `COC(=O)Nc1nc2ccc(Oc3ccc(NC(=O)Nc4cccc(Br)c4)cc3)cc2[nH]1` [GW694234A]: 72%, 71% and 86%.
The matching figures for `COc1cc(Nc2ncc(-c3ccccc3)o2)cc(OC)c1` [GW631581B]: 97%, 64% and 79%.
For `NS(=O)(=O)c1ccc(N/C=C2\C(=O)Nc3ccc4ncsc4c32)cc1` [GW297361X], the remaining activity at 100 µM on E. coli MurF worked out at 86%; on E. coli MurC (setting [1]), 107%; on E. coli MurD it was 76%.
The matching figures for `Fc1ccc(-c2ncn(C3CCNCC3)c2-c2ccnc(Oc3ccc(Oc4ccccc4)cc3)n2)cc1` [SB-245392]: 41%, 27% and 41%.
Take `CNC(=O)c1cc(-c2ccc(F)cc2)cc(-c2ccc(S(=O)(=O)N3CCCC3)cc2)c1N` [GSK635416A]: the remaining activity at 100 µM amounted to 88% on E. coli MurF, 71% on E. coli MurC (setting [1]) and 43% at E. coli MurD.
As for `CS(=O)(=O)CCN(CC#N)Cc1ccc(-c2ccc3ncnc(Nc4ccc(OCc5cccc(F)c5)c(Cl)c4)c3c2)o1` [GW616030X], the remaining activity at 100 µM on E. coli MurF was 80%; at E. coli MurC (setting [1]) it was 76%; on E. coli MurD it was 59%.
Regarding `O=C(Nc1ccc(Oc2ccc3nc(NC(=O)c4ccccc4)[nH]c3c2)cc1)Nc1cc(C(F)(F)F)ccc1F` [GW709042A], the remaining activity at 100 µM on E. coli MurF was found to be 100%; at E. coli MurC (setting [1]), 100%; at E. coli MurD, 95%.
